Values quoted from earlier work as cited in patent publication US20240339215A1, “SYSTEM AND METHOD FOR DRUG SELECTION” (Board of Regents, The University of Texas System, priority 2023, published 2024).
Read-outs that look alike come from different tables or passages of the source.

System: breast cancer cell lines

Measured: synergistic effect of combination

Cc1cc([C@@H](C)Nc2ccccc2C(=O)O)c2nc(N3CCOCC3)cc(=O)n2c1 [AZD6482]
synergistic effects: combined with Linsitinib | combined with MK-1775 (Adavosertib) | combined with Sapitinib | combined with Vorinostat
